pIC50: −log10 of the molar value. Like-named read-outs stand apart in the source and are kept apart here.
Biological target: T1, hPRB (Homo sapiens, UniProt P06401)
T1 sequence (P06401 1-933): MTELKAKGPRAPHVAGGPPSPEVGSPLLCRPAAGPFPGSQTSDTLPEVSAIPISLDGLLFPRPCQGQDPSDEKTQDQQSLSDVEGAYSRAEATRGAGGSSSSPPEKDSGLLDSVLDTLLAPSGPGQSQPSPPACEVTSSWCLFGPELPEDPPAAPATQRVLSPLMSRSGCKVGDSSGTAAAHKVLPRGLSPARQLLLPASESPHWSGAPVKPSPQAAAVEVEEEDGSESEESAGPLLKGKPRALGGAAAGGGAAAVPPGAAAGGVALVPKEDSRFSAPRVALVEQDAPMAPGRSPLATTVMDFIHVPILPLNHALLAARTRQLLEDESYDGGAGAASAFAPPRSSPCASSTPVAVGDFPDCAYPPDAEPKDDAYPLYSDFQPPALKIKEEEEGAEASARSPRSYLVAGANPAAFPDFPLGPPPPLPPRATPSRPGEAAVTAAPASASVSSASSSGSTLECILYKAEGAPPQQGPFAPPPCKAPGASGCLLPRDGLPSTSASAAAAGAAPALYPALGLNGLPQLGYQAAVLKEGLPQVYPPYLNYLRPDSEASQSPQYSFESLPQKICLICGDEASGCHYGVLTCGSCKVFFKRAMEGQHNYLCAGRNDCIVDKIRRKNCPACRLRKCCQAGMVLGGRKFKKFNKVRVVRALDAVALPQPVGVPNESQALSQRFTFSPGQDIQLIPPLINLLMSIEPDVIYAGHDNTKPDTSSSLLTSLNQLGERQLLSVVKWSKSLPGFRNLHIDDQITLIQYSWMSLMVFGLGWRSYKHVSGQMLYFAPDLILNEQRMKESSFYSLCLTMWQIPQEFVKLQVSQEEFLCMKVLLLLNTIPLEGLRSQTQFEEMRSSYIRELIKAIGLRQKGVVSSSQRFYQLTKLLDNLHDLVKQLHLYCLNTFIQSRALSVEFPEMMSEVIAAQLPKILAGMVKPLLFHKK
Assay: PR transactivation assay (GRE2-Luc) in MDA-MB-231 iPRAB cells conditionally expressing hPRB
Format: cell-based
Set-up: expressed in transfected cells
Procedure: Establishment of the MDA-MB-231 iPRAB cells.
The PR negative breast cancer cells MDA-MB-231 were routinely maintained in RPMI 1640 medium with L-glutamine enriched with 5% fetal calf serum (FCS) and supplemented with antibiotics (penicillin 100 UI/ml, streptomycin 100 μg/ml). MDA MB-231 iPRAB cells allowing the bi-inducible expression of PRA and PRB isoforms were generated in two steps. First, pZX-TR vector expressing inducer proteins required for Tet-on (Tet-Repressor) and Ecdysone receptor-based system (EcR and RXR hybrids) was engineered using pcDNA6-TR (T-REx system, Invitrogen) and pZRD (Lessard, J. Prostate 2007 67, 808) derived from Rheoswitch system (NE Biolabs). Transfection of MDA-MB-231 cells by pZX-TR (harboring zeocin resistant gene) was performed using Lipofectamine 2000 (Invitrogen). Three hundred clones resistant to Zeocin (1 μg/ml) were isolated, amplified and screened for the proper functioning of both RheoSwitch and Tet-on inducible systems by transient transfection with pGal-4-luciferase or pTO-luciferase reporter genes generated as described. Luciferase activity was determined in the absence or presence of respective inducer ligand RSL1 (diacylhydrazine, a non-steroidal agonist of ecdysone, NE Biolabs) (500 nM) or Doxycycline (Dox, a tetracyclin analog, Sigma-Aldrich) (1 μg/ml) after 24 h. The clone that produced minimal background in the absence of both RSL1 and Dox and high inducible expression level on reporter gene assays by both systems was finally selected, verified and amplified (clone 250). This cell line was then further stably transfected by PR isoforms expressing vectors specifically engineered: pGaluas-PRA (harboring neomycin resistant gene) expressing PRA under the control of Gal4 Upstream Activating Sequences upstream of a truncated CMV promoter, and pTO-PRB (harboring blasticidin resistant gene) expressing PRB under the control of TetO2 responsive elements downstream of the full CMV promoter. Clones resistant to zeocin (1 μg/ml), neomycin (500 μg/ml) and blasticidin (2 μg/ml) were then isolated, amplified and screened by Western blot for PR isoforms expression in the absence or presence of both RSL1 (500 nM) and Dox (1 μg/ml) after 24 h. […] It was used to evaluate APRn properties and was defined as MDA-MB-231 iPRAB cells conditionally expressing PRB in the presence of doxycyclin (1 μg/ml).
PR Transactivation Assays in MDA-MB-231 iPRAB Cells.
The cells were cultured in 96-well plates in RPMI 1640 medium with L-glutamine without phenol red, enriched with 5% DCC serum containing inducer ligand RSL1 (500 nM) or Dox (1 μg/ml) for PRA or PRB expression during 24 h. Cells were then transfected with GRE2-Luc (100 ng) and β-galactosidase (20 ng) plasmids during 6 h, using Lipofectamine 2000 (Invitrogen). […] Whole cell extracts were collected using lysis buffer (Promega). Luciferase and β-galactosidase activity or total protein contents (BCA assay) were determined using a luminometer (Victor 378, Perkin Elmer). Luciferase activity was normalized by β-galactosidase activity or total protein contents.
All the synthesized APRn were classified in 4 series depending on the nature of their C3 substituent (R1/R′1 groups). The first one (series 1) includes APRn with no C3 substituent (R1═R′1═H) whereas series 2, 3 and 4 are related to APRn bearing a methoxyl (R1═OMe), a hydroxyl (R1═OH) and a fluorine atom (R1═F), respectively. The agonist/antagonist activities of APRn were determined either in human HEK293T cells transiently expressing hPRB or in human MDA-MB-231 iPRAB cells conditionally expressing hPRB, by using a luciferase reporter gene placed under the control of a glucocorticoid response element (GRE2-Luc). The APRn “agonist efficacy” was determined from the luciferase activity measured in the presence of APRn (1 μM). […] The “agonist efficacy” and “antagonist efficacy” are expressed as defined in the biological protocols section.

SMILES	pIC50 (dose response curves, MDA-MB-231 iPRAB cells expressing hPRB, FIG. 9, read-out: IC50)	pIC50
CC(=O)[C@H]1CC[C@H]2[C@@H]3CC=C4C[C@@H](F)CC[C@]4(C)[C@H]3CC[C@]12C [APR-16, 3β-Fluoropregn-5-en-20-one]	~6.30	
C[C@@H]1CCC2C3CC=C4C[C@@H](F)CC[C@]4(C)C3CC[C@]2(C)[C@H]1F (stereo partly drawn) [APR-19, 3β,17α-Difluoro-17α-methyl-D-Homo-pregn-5-ene]		~6.30
CC#C[C@]1(O)CCC2C3CC[C@H]4C[C@@H](F)CC[C@]4(C)C3CC[C@@]21C (stereo partly drawn) [APR-43, 3β-Fluoro-17α-(1-propynyl)-5α-androstan-17β-ol]		~6.30
C[C@]12CCC3C(CC=C4C[C@@H](F)CC[C@@H]43)C1CCC2=O (stereo partly drawn) [APR-47, 3β-Fluoro-19-nor-androst-5-en-17-one]		~6.30
CC#C[C@]1(O)CCC2C3CC=C4C[C@@H](F)CC[C@@H]4C3CC[C@@]21C (stereo partly drawn) [APR-51, 3β-Fluoro-17α-(1-propynyl)-19-nor-androst-5-en-17β-ol]		~6.30
CC#C[C@]1(O)CCC2C3CC[C@H]4CCCC[C@@H]4C3CC[C@@]21C (stereo partly drawn) [APR-54, 17α-(1-Propynyl)-19-nor-5-androstan-17β-ol]		~6.30
